The values that follow come from article PMC6567057, “Pharmacokinetic, metabolic stability, plasma protein binding and CYP450s inhibition/induction assessment studies of N-(2-pyridylmethyl)-2-hydroxiymethyl-1-pyrrolidinyl-4-(3-chloro-4-methoxy-benzylamino)-5-pyrimidine-carboxamide as potential type 5 phosphodiesterase inhibitors” (Animal Cells and Systems, 2019).

One data set has as its system CYP1A2. Put plainly: CYP induction in human primary hepatocytes. Type of data set: in vitro ADME. Particulars: CYP1A2, human primary hepatocytes of three batches, 0.10, 1.00 or 10.0 μM, 72 h. As for the experimental part: (§1) The hepatocytes were seeded on a collagenated 48-well plate for 24 h in an incubator at 37°C (moisturized, with 5% CO2). The hepatocytes were then incubated with the test article thereafter. The stock solutions of omeprazole (100 mM), rifampin (20.0 mM), testosterone (200 mM), phenacetin (100 mM) and NHPPC (50.0 mM) were prepared in DMSO, and were diluted using the cell culture medium. The DMSO content in the final solutions was 0.10%, the medium containing 0.10% DMSO was used as the blank control. The cells were co-incubated with the positive control inducers or NHPPC for 72 h and during the incubation the medium was changed every day. After the incubation, the medium was discarded and replaced with 200 μL phenol red-free culture medium containing 100 μM phenacetin (CYP1A2 probe substrate) or 200 μM testosterone (CYP3A4 probe substrate). After the incubation in the presence of the probe substrates at 37°C for 1 h, the supernatants were collected and stored at −80°C until analysis. All incubations were also conducted in triplicate. The generated metabolites of the CYP1A2 and CYP3A4 probe substrates were analyzed by LC/MS/MS methods. The induction effects of the positive control inducers and NHPPC were assessed by the amount of metabolites formed in the induced and uninduced hepatocytes. The percent induction of positive control was calculated using the following equation. […]

The test system of data set [1] is CYP3A4. In words: CYP induction in human primary hepatocytes. The format is in vitro ADME. Conditions: CYP3A4, human primary hepatocytes of three batches, 0.10, 1.00 or 10.0 μM, 72 h. How it is done: as §1
Data set [2] is described as follows: Plasma protein binding by equilibrium dialysis (dog). Type of data set: in vitro ADME, Beagle dog. Particulars: beagle. As for the experimental part: (§2) The phosphate buffer (100 mM) and sodium hydroxide solution (1.0 M) were prepared in deionized water. […] PPB was determined by equilibrium dialysis method. An aliquot (150 μL) of NHPPC spiked plasma and phosphate buffer (pH 7.4) was added into the donor side and the receiver side of each designated well. The plate was covered with adhesive sealing film to prevent evaporation and placed in a water-bath shaker kept at 37°C for 6 h with a rate of 50 rpm. […] At the end of 6 h, aliquots were taken from each side of each well (n = 3) and kept in a −20°C freezer prior to analysis. The stability, device recovery and PPB were calculated using the following equations: Remaining at 6 h (%)=C6h/C0h×100%, Device recovery (%)=CDonor+CReceiver/C6h×100%, PPB (%)=CDonor−CReceiver/CDonor×100%.
Background: In equilibrium dialysis only unbound substance equilibrates across the membrane.

The test system of the next data set is dog plasma proteins. Described as above. Type of data set: in vitro ADME, Beagle dog. Particulars: dog plasma, mean of 0.2 and 1 µM. As for the experimental part: as §2
Data set [3] deals with T1, CYP3A4 (Homo sapiens, UniProt P08684).
T1 construct: tissue BD Gentest; host or cells: pooled human liver microsomes
T1 sequence (P08684 whole entry): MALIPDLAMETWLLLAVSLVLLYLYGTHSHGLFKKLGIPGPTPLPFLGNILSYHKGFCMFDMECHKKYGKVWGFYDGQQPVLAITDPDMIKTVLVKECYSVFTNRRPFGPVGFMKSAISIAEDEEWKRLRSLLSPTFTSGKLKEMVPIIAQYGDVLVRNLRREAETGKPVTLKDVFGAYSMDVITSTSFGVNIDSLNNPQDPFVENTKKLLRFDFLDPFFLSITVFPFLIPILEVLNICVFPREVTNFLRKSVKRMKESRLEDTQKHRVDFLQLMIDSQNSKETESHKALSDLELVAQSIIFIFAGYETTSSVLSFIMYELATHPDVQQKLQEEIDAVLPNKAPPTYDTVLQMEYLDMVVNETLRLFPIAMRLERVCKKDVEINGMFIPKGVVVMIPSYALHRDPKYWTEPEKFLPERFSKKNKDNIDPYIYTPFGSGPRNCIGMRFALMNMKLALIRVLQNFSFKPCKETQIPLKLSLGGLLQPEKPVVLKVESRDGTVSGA
In words: CYP isozyme inhibition in human liver microsomes. The format is in vitro ADME. Conditions: calculated from inhibition at 3 μM. As for the experimental part:
The stock solutions of the probe substrates phenacetin (20.0 mM), diclofenac (20.0 mM), S-mephenytoin (30 mM), dextromethorphan (10.0 mM), midazolam (10.00 mM) and testosterone (50.0 mM) were prepared using methanol, while α-Naphtoflavone (3.0 mM), sulfaphenazole (3.0 mM), N-3-benzylnirvanol (3.0 mM), quinidine (3.0 mM), ketoconazole (3.0 mM) and NHPPC (10.0 mM) were prepared using DMSO, and diluted with phosphate buffer (PB, 100 mM, pH 7.4) before added into the incubation system. The organic solvents in the final incubate were no more than 0.20%. The incubation medium was 100 mM phosphate buffered saline, and the final incubation volume was 200 μL containing 25 pmol/mL human liver microsomes CYP enzyme, probe substrate, 1 mM NADPH and NHPPC at 3.00 μM. The reactions were initiated after 5 min pre-incubation at 37°C and were terminated by the addition of 400 μL ice-cold acetonitrile. All incubations were conducted in triplicate, and the samples were stored at −80°C until analysis. Calculation of IC50 was performed by using following equations, where C is concentration of test compounds.

The nature of data set [4]: In vitro metabolic stability in dog liver microsomes. The format is in vitro ADME. Conditions: for remaining at 1 h, 1 µM: liver microsomes, pH 7.4, dog liver microsomes, 60 min, read-out: percent remaining. As for the experimental part: The phosphate buffer (pH 7.4, 100 mM) and (300 mM) were prepared in deionized water. NADP and IA were dissolved in phosphate buffer and MgCl2 solution and then added 20 μL IDH (18 units/mg protein) and mixed. NHPPC (1 mM) and positive control drug were prepared by dilution using DMSO and then the NHPPC and positive control drug working solution (50 μM) were obtained by dilution using methanol: H2O (1:1, v/v) mixture. Pooled human, rat and dog liver microsomes were added to phosphate buffer pH7.4 to a concentration 20 mg/mL. NHPPC was incubated with liver microsomes. The incubation solution of the final reaction conditions contained 50 mM potassium phosphate buffer (pH 7.4), 0.5 mg protein/mL microsomes, 3 mM MgCl2, 2 mM NADPH and 1 μM NHPPC or positive control drug in a final volume of 100 μL. In sample and positive control groups, NADPH was added into the incubation solutions. In the negative control group, water (the replacement of NADPH) was added into the incubation solutions. Samples were incubated aerobically in a shaking water bath at 37°C and the reaction was terminated by adding 300 μL of ice cold acetonitrile (contain 100 ng/mL IS) at different interval 0, 5, 10, 20, 30 and 60 min. While positive control and negative control were incubated aerobically in a shaking water bath at 37°C for 0 and 60 min, respectively. NHPPC and control concentrations were determined by LC-MS/MS at each time point (n = 3). Calculation of t1/2 and CLint was performed by using following equations, where K is the elimination rate constant (min^−1) and QH is hepatic blood flow (mL/min/kg). t1/2=0.693/KCLint,in vitro=VD×KVD=Volume of reaction mixture(mL)/mg of protein per reation.
Hepatic intrinsic clearance was estimated by using the scaling factors and calculated by using the following equation (Lave et al. [1997]). CLint,in vivo=CLint×mg microsomal protein per liver×g liver per kg body weight, Cint,H=CLint,in vivo×QH/CLint,in vivo+QH,EH=CLint,H/QH.
(Liver microsomes are a subcellular fraction often used to study metabolism.)

Where two headings read alike, the source gives them in different places.

With `COc1ccc(CNc2nc(N3CCC[C@H]3CO)ncc2C(=O)NCc2ccccn2)cc1Cl` [NHPPC, N-(2-pyridylmethyl)-2-hydroxiymethyl-1-pyrrolidinyl-4-(3-chloro-4-methoxy-benzylamino)-5-pyrimidine-carboxamide], the “percent induction of positive control” value in the data set with CYP1A2 and in the data set on CYP3A4 [1] was “less than 40%” throughout. The fraction unbound at 6 h, 0.2 µM in data set [2] (dog, plasma, pH 7.4, dog plasma, 0.2 µM, equilibrium dialysis 6 h, read-out: Mean PPB % (converted)) was 0.008. Besides, the fraction unbound at 6 h, 1 µM in data set [2] (dog, plasma, pH 7.4, dog plasma, 1 µM, equilibrium dialysis 6 h, read-out: Mean PPB %) came out at 0.001 ± 3.8e-06. Also, in data set [2] (pH 7.4, dog plasma, equilibrium dialysis, n = 3, read-out: Mean device recovery %), the recovery at 6 h, 0.2 μM is 95.7 ± 0.3%. In addition, the “Mean PPB %” value with dog plasma proteins came out at 99.6 ± 0.26%. Also, the IC50 on CYP3A4 [3] (CYP3A4 (midazolam based)) and on CYP3A4 [3] (CYP3A4 (testosterone based)) was over 100 µM in each case. Moreover, the share remaining – broadly, what is left of the initial amount, in per cent – at 1 h, 1 µM amounted to 0.8% in data set [4] (dog, in the presence of NADPH, 1 μM) and 98.4% in data set [4] (dog, without NADPH regenerating system). The compound also yielded a CLH in data set [4] (dog, scaled from liver microsomes) of 1.52 L/h/kg. In data set [4] (liver microsomes (pooled), pH 7.4, dog liver microsomes), the half-life (commonly the time needed for the level to fall by half in the phase considered) at 1 µM is 8.2 min. In addition, the microsomal CLint at 1 µM in data set [4] (liver microsomes (pooled), pH 7.4, dog liver microsomes, read-out: CLint, ivtro) was 120 µL/min/mg. Also, the k el at 1 µM in data set [4] (pH 7.4, dog liver microsomes, read-out: Ke (converted)) is 0.0014 s⁻¹.
